Laboratory results published in article PMC6509188, “Enterococcus faecalis Encodes an Atypical Auxiliary Acyl Carrier Protein Required for Efficient Regulation of Fatty Acid Synthesis by Exogenous Fatty Acids” (mBio, 2019).

Key:
Assay type in all cases: biochemical
[1] = molecular target: T1, PlsX (Enterococcus faecalis, UniProt Q82ZE8); assay: acyl transfer to holo-ACP, urea-PAGE; settings: acyl acceptor holo-AcpB of E. faecalis; 0.05 uM PlsX, 0.75 mM Mg2+, 0.5 mM DTT, 0.1 M HEPES pH 7.0, 37 C
T1 construct: N-terminal hexahistidine tag, expressed from pZL391 in E. coli, purified
T1 sequence (Q82ZE8 1-333): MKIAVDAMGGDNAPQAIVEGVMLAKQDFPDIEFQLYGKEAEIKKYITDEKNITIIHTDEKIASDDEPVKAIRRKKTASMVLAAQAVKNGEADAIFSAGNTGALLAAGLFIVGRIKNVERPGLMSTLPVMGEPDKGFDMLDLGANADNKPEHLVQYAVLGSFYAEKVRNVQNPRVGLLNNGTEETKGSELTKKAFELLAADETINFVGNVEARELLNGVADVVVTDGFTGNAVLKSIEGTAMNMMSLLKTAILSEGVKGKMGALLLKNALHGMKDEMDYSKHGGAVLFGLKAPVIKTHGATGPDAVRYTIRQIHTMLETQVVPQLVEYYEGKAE

[2] = molecular target: T2, AasS (Vibrio harveyi, UniProt Q00IB3); assay: acyl-ACP synthesis, urea-PAGE; settings: acceptor holo-AcpA or holo-AcpB of E. faecalis; 2 mM ATP, 200 uM acid, 37 C
T2 construct: N-terminal hexahistidine tag, expressed from pYFJ84, nickel-chelate purified; used to prepare acyl-ACPs

[3] = molecular target: T3, AcpS (Enterococcus faecalis, UniProt Q820V0); assay: conversion of apo-ACP to holo-ACP, PAGE; settings: acceptor apo-AcpA or apo-AcpB of E. faecalis; Mg2+, Tris-HCl pH 8.0, 37 C
T3 construct: N-terminal hexahistidine tag, expressed from pZL311, nickel-chelate purified
T3 sequence (Q820V0 1-117): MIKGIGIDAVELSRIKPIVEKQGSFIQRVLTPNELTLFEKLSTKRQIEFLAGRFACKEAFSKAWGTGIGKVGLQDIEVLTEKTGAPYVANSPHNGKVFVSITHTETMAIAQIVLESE

T2 sequence (Q00IB3 entry or part of it): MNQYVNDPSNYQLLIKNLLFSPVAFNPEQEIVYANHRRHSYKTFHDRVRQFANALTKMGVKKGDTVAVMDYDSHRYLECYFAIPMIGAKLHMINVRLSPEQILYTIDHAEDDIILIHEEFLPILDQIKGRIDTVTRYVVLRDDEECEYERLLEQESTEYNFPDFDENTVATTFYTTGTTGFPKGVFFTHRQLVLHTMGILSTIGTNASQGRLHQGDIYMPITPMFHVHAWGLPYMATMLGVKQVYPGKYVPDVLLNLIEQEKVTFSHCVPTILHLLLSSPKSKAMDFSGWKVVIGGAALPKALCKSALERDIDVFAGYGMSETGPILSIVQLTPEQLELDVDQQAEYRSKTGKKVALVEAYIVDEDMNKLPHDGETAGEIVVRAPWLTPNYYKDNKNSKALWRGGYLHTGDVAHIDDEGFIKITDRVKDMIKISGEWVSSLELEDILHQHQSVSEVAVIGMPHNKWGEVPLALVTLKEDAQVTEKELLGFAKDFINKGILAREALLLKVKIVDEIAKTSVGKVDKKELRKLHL

CCCCCCCCCCCCCCCCCC(=O)OP(=O)(O)O [stearoyl-phosphate]
acyl transfer to holo-ACP, urea-PAGE [1]: AcpB was fully converted into acyl-AcpB when stearoyl-phosphate (C18:0-PO4) or oleyl-phosphate (C18:1-PO4)

CCCCCCC/C=C/C(=O)O [trans-2-decenoic acid]
acyl-ACP synthesis, urea-PAGE [2]: Incubation of the holo proteins with AasS, ATP, and trans-2-decenoic acid resulted in trans-2-decenoyl-AcpA

CC(C)(COP(=O)(O)OP(=O)(O)OC[C@H]1O[C@@H](n2cnc3c(N)ncnc32)[C@H](O)[C@@H]1OP(=O)(O)O)[C@@H](O)C(=O)NCCC(=O)NCCS [CoA]
conversion of apo-ACP to holo-ACP, PAGE [3]: treated with E. faecalis AcpS and coenzyme A (CoA)
